# Experimental data taken from patent US20070213291A1, “Therapeutically useful synthetic oligonucleotides” (priority 1999, published 2007).
# Columns and labels:
# Type in all cases: cell-based
# [1] = test system: Jurkat human leukemia T cells; test: Inhibition of Jurkat human leukemia T cell proliferation (MTT reduction); details: 100 μg/ml sequence, 48 h, 2.5×10^5 cells/ml
# Summary of the method: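 Read-out is MTT absorbance at 570 nm after 48 h. Sequences of 2 to 45 bases (A, C, G, T) tested at 100 μg/ml against untreated control, with 2.5×10^5 Jurkat cells/ml held at 37° C under 5% CO2.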
# [2] = test system: Jurkat human leukemia T cells; test: Apoptosis by phosphatidylserine/annexin V-FITC flow cytometry; details: 50 μM sequence
# Description: (§1) The redistribution of phosphatidylserine in the plasma membrane during apoptosis was measured by flow cytometry using FITC-conjugated annexin V (BD Pharmingen, San Diego, Calif.). NuMA release into the supernatant was determined using a commercial ELISA kit (Oncogen/Calbiochem, Cambridge, Mass.).
# Jurkat human leukemia T cells were incubated with 50 μM of 3, 4, 5, 6 and 7 GT base sequences, a 5 base ACGT sequence, 6 base AG, GG, AGT and CGT sequences and a 7 base GG sequence. […]
# Jurkat human leukemia T cells were incubated with GT-rich or AC-rich sequences derived from the murA gene of Mycobacterium phlei (GenBank: Accession Number X99776). Inhibition of proliferation was measured by the reduction of MTT as in Example 3, cell cycle arrest was detected by flow cytometry using propidium iodide as in Example 21 and apoptosis was evaluated by flow cytometry using annexin-V-FITC as in Example 23.
# [3] = test system: Jurkat human leukemia T cells; test: NuMA release into supernatant (ELISA); details: Jurkat, 50 μM sequence
# Description: as §1
# Jurkat human leukemia T cells were incubated with 50 μM of 3, 4, 5, 6 and 7 GT base sequences, a 5 base ACGT sequence, 6 base AG, GG, AGT and CGT sequences and a 7 base GG sequence.
# Jurkat human leukemia T cells (1×10^6/ml) were incubated with 6 and 27 GT base sequences (Table 32). NuMA was determined as in Example 23.
# Jurkat human cell leukemia T cells were incubated for 24 h with 6 base GT SEQ ID NO:25, complementary 6 base AC SEQ ID NO:79, and 6 base GT SEQ ID NO:25+6 base AC SEQ ID NO:79. GT SEQ ID NO:25 and AC SEQ ID NO:79 were hybridized by mixing the sequences (1:1) and heating for 10 minutes at 65° C. As controls, GT SEQ ID NO:25 and AC SEQ ID NO:79 were heated for 10 minutes at 65° C. (Table 33). Apoptosis was evaluated as in Example 23.
# [4] = test system: THP-1 human acute monocytic leukemia cells; test: Cytokine production by THP-1 cells (ELISA); details: THP-1, 1×10^6 cells, 100 μg/ml, 48 h; for ↑ IL-12 (fold increase treated vs control cells): p70 complex and free p40
# Summary of the method: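 Read-out is fold increase in supernatant cytokine versus control cells, measured by ELISA (IL-12 ELISA counts p70 complex plus free p40). Unless noted, sequences were tested at 100 μg/ml on 1×10^6 cells, incubated 48 h, 37° C, 5% CO2.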
# [5] = test system: human peripheral blood mononuclear cells; test: Cytokine production by human PBMC (ELISA); details: PBMC of 7 healthy humans, 100 μg/ml, 48 h
# Description: (§2) Unless stated otherwise, 1×10^6 cells were incubated with 100 μg/ml of each of the sequences tested for 48 h at 37° C. in 5% CO2. Production of cytokines IL-6, IL-10, IL-12, IL-1beta and TNF-alpha was determined in pg/ml in 100 μl of culture supernatant using the appropriate commercial ELISA (BioSource, Camarillo Calif.). The IL-12 ELISA measures both IL-12 p70 complex and free p40 subunit. Results are expressed as the “fold” (×) increase in cytokine production by treated cells compared to control cells.
# Peripheral blood mononuclear cells (hereinafter, “PBMCs”) were isolated from 7 healthy humans by Ficoll-Hypaque (Amersham Pharmacia Biotech, Baie d'Urfée, Québec, Canada) by density gradient centrifugation of whole blood. PBMCs were incubated with 6 base GT, AGT, CGT, AG, CG and GG sequences and production of the cytokines IL-1beta, IL-6, IL-10 and IL-12 were determined.
# [6] = test system: chimpanzee PBMCs; test: Cytokine production by chimpanzee PBMC (ELISA); details: PBMC of 4 healthy chimpanzees, 100 μg/ml, 48 h
# Description: as §2
# PBMCs were isolated from 4 healthy chimpanzees as in Example 35. Chimpanzee PBMCs were incubated with 6 base GT, AGT, CGT, AG, CG and GG sequences and production of the cytokines IL-10, IL-12 and TNF-alpha was determined (Table 41).
# [7] = test system: rhesus monkey PBMCs; test: Cytokine production by rhesus monkey PBMC (ELISA); details: PBMC of 4 healthy rhesus monkeys, 100 μg/ml, 48 h
# Description: as §2
# PBMCs were isolated from 4 healthy rhesus monkeys as in Example 35. PBMCs were incubated with 6 base GT, AGT, CGT, AG, CG ands GG sequences and production of the cytokines IL-6, IL-12 and TNF-alpha was determined (Table 42).
Sequence,% INHIBITION of Jurkat human leukemia T cell proliferation [1],% of cells in apoptosis (positive for PS/A-V staining) [2],% NuMA released (treated vs untreated cells) [3],↑ IL-6 (fold increase treated vs control cells) [4],↑ IL-12 (fold increase treated vs control cells) [4],IL-1 beta fold increase: mean +/− SD [5],IL-6 fold increase: mean +/− SD [5],IL-10 fold increase: mean +/− SD [5],IL-12 fold increase: mean +/− SD [5],IL-10 fold increase: mean +/− SD [6],IL-12 fold increase: mean +/− SD [6],TNF-alpha fold increase: mean +/− SD [6],IL-10 fold increase: mean +/− SD [7],IL-12 fold increase: mean +/− SD [7],TNF-alpha fold increase: mean +/− SD [7]
GGGGGG [SEQ ID NO:44],26%,5%,0%,15.1x,0.0x,7.1 +/− 9.4 fold increase,21.0 +/− 14.7 fold increase,1.7 +/− 1.6 fold increase,7.0 +/− 12.5 fold increase,11.2 +/− 9.1 fold increase,15.1 +/− 10.0 fold increase,13.8 +/− 6.5 fold increase,2.1 +/− 1.0 fold increase,10.7 +/− 5.6 fold increase,13.9 +/− 8.5 fold increase
GGGCGG (unmodified DNA) [SEQ ID NO:46],23%,16%,11%,9.8x,2.3x,1.2 +/− 0.3 fold increase,15.8 +/− 16.2 fold increase,1.0 +/− 0.1 fold increase,3.0 +/− 3.8 fold increase,4.7 +/− 3.4 fold increase,15.8 +/− 10.4 fold increase,14.1 +/− 6.6 fold increase,1.2 +/− 0.2 fold increase,11.0 +/− 4.4 fold increase,16.8 +/− 4.1 fold increase
AAGTAA [SEQ ID NO:27],13%,20%,56%,12.8x,6.0x,1.3 +/− 0.5 fold increase,9.6 +/− 7.3 fold increase,1.0 +/− 0.1 fold increase,2.4 +/− 2.2 fold increase,2.1 +/− 1.1 fold increase,13.2 +/− 8.2 fold increase,7.9 +/− 3.9 fold increase,0.9 +/− 0.1 fold increase,7.6 +/− 2.6 fold increase,6.0 +/− 5.0 fold increase
CCGTCC [SEQ ID NO:28],11%,6%,0%,12.6x,3.8x,2.1 +/− 1.8 fold increase,10.4 +/− 13.0 fold increase,1.0 +/− 0.1 fold increase,5.9 +/− 10.7 fold increase,3.8 +/− 2.8 fold increase,13.3 +/− 8.4 fold increase,10.3 +/− 5.7 fold increase,1.1 +/− 0.2 fold increase,10.1 +/− 3.7 fold increase,14.2 +/− 3.7 fold increase
